# Laboratory results published in patent publication US10669274B2, “Azaphenalene-3-one derivative, preparation method therefor, and application therof” (SUZHOU KANGRUN PHARMACEUTICALS INC., priority 2017, dated 2020).
# Molecular target: T1, PARP1 (Homo sapiens, UniProt P09874)
# T1 construct: purchased Trevigen
# Assay: Determination of PARP1 inhibitory activity (Universal PARP colorimetric assay kit, Trevigen)
# Type: biochemical
# Details: for IC50: PARP1, OD at 450 nm, Logit method; for Inhibition (%): footnote: inhibition rate below 500 nM unless indicating otherwise
# Method: Determination of PARP1 inhibitory activity
# Method for determining PARP1 inhibitory activity:
# (1) adding 50 μL of 1X PARP Buffer to each well, incubating for 30 min at room temperature, and drying;
# (3) adding 25 μL of 1X PARP1 cocktail to each well and incubating for 60 min at room temperature;
# T1 sequence (P09874 whole entry): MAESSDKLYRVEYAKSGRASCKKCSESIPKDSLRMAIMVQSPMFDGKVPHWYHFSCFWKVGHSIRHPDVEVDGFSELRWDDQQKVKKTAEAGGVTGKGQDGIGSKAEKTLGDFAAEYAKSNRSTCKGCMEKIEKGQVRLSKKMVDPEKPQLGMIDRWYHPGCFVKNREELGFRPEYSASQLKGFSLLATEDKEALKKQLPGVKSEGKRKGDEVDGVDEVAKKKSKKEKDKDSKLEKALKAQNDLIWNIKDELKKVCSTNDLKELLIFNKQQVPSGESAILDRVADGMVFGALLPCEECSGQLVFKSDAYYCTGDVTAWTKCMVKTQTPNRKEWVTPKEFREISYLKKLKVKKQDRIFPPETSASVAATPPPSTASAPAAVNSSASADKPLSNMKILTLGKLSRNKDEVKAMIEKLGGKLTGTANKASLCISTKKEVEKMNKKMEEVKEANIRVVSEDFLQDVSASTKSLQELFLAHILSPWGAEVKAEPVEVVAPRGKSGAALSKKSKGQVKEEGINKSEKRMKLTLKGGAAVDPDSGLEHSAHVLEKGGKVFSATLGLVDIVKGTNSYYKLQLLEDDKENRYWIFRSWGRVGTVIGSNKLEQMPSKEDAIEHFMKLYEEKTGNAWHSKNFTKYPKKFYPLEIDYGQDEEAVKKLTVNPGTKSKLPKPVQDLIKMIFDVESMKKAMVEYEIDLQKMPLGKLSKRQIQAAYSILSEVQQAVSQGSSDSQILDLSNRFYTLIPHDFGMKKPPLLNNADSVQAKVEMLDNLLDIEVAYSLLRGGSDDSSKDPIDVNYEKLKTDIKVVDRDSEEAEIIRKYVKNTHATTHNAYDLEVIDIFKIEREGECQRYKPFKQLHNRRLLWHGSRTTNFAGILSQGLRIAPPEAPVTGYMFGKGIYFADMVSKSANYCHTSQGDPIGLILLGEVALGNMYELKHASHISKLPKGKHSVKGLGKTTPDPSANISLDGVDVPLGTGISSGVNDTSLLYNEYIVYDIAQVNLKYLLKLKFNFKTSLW
"inhibition at 1 µM (PARP1 enzyme inhibition rate, 1 μM) [%]","inhibition at 10 µM (PARP1 enzyme inhibition rate, 10 μM) [%]",Structure (SMILES),IC50 [nM],Inhibition (%) (PARP1 enzyme inhibition rate)
23.6,,"NC(=O)c1ccc(I)c([N+](=O)[O-])c1 [BSI-201, reference compound]",,
,16.9,"NC(=O)c1cccc(N)c1 [Compound 3-AB, reference compound]",,

# The next lines start with the compound.
Structure (SMILES),"inhibition at 1 µM (PARP1 enzyme inhibition rate, 1 μM) [%]","inhibition at 10 µM (PARP1 enzyme inhibition rate, 10 μM) [%]",IC50 [nM],Inhibition (%) (PARP1 enzyme inhibition rate)
CC1=CN2C(=Nc3cccc4c(=O)[nH]nc2c34)C=C1 [Compound 9],,,81.9,87.58
O=c1[nH]nc2c3c(cccc13)N=C1C=CC(CNCC(F)(F)F)=CN12 [Compound A2],,,346,76.29
CCN(CC)CC1=CN2C(=Nc3cccc4c(=O)[nH]nc2c34)C=C1 [Compound A3],,,137,84.77
O=c1[nH]nc2c3c(cccc13)N=C1C=CC(CN3CCCC3)=CN12 [Compound A4],,,103,84.77
O=c1[nH]nc2c3c(cccc13)N=C1C=CC(Cn3ccnc3)=CN12 [Compound A5],,,164,95.72
O=c1[nH]nc2c3c(cccc13)N=C1C=CC(CN3CCCCC3)=CN12 [Compound A6],,,294,91.67
O=c1[nH]nc2c3c(cccc13)N=C1C=CC(CN3CCOCC3)=CN12 [Compound A7],,,194,73.37
CNC1CCN(CC2=CN3C(=Nc4cccc5c(=O)[nH]nc3c45)C=C2)CC1 [Compound A8],,,,79.97
CN(C)C1CCN(CC2=CN3C(=Nc4cccc5c(=O)[nH]nc3c45)C=C2)CC1 [Compound A9],,,,82.15
CN1CCC(N(C)CC2=CN3C(=Nc4cccc5c(=O)[nH]nc3c45)C=C2)CC1 [Compound A10],,,119,88.97
CN(CC1=CN2C(=Nc3cccc4c(=O)[nH]nc2c34)C=C1)C1CCN(c2ccccc2)CC1 [Compound A11],,,160,92.42
CN(CC1=CN2C(=Nc3cccc4c(=O)[nH]nc2c34)C=C1)C1CCN(Cc2ccccc2)CC1 [Compound A12],,,,89.42
O=c1[nH]nc2c3c(cccc13)N=C1C=CC(CN3CCc4ccc(F)cc4C3)=CN12 [Compound A13],,,,79.67
